Test results taken from article PMC8770593 (Nature Communications, 2022).
Substitutions are numbered along the chain they refer to. “And” between values parts separate entries of the source, which are not always exact repeats. Identical values can stand only once. Like-named read-outs stand apart in the source and are kept apart here.

Columns and labels:
[1] = biological target: T1, wild-type α2CAR (Homo sapiens, UniProt P18825); test: HTRF ligand-binding assay on whole transfected HEK293T/17 cells (QAPB saturation; competition with QAPB tracer)
T1 sequence (P18825 37-462 limits assumed): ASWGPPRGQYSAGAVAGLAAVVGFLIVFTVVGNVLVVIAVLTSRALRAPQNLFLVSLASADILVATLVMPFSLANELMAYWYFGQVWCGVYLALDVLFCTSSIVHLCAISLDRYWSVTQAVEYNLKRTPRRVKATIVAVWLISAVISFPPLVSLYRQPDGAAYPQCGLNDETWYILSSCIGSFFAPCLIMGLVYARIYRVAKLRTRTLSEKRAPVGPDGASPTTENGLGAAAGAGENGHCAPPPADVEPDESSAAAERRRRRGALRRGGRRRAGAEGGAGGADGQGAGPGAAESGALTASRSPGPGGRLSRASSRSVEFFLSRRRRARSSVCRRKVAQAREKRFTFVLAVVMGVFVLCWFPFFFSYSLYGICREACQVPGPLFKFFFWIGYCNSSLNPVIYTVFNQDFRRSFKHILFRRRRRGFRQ

[2] = biological target: α1BAR-α2C(YLLY;ECL2) chimera (Homo sapiens, UniProt P35368, A122L/DEL188-193/E186Y/E194Q/E199D/F202W/G179P/I178F/INS181VSLYRQP/K185A/L182D/L314Y/P201T/T198N/V197L/W121Y/W184A); test: as above; conditions: competition with 50 nM QAPB tracer, whole cells, mean; read-out: pKi (competition binding) (converted)
Chain of α1BAR-α2C(YLLY;ECL2) chimera (P35368 with tags, fused parts or gaps with the stated changes): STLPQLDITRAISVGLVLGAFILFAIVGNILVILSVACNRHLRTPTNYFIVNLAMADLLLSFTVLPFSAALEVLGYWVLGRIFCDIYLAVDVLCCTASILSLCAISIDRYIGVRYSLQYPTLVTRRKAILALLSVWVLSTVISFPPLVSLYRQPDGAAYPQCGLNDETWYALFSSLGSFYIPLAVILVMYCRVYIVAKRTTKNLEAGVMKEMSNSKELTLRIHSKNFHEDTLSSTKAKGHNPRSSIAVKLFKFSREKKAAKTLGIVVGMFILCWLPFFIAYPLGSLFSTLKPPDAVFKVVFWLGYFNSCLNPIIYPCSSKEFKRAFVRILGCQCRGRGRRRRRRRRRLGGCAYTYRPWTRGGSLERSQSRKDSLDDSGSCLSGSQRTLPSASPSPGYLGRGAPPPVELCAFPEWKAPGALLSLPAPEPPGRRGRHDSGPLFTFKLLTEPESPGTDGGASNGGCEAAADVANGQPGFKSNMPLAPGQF

[3] = biological target: T2, α1BAR-α2C(YLLY) chimera (Homo sapiens, UniProt P35368, A122L/L314Y/V197L/W121Y); test: as above
T2 sequence (P35368 35-520 W121Y/A122L/V197L/L314Y): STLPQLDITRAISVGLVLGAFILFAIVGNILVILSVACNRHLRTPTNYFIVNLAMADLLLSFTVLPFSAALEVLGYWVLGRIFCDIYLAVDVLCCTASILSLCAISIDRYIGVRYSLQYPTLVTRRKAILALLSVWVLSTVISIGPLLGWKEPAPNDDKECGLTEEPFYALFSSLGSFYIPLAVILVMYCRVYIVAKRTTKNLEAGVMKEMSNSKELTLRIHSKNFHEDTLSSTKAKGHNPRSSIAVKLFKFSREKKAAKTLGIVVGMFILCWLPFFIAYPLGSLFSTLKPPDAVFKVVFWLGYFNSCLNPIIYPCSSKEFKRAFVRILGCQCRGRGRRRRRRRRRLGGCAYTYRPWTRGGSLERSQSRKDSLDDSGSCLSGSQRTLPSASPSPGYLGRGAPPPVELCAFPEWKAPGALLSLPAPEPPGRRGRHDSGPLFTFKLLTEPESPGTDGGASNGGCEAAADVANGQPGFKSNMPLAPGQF

[4] = system: α2CAR L128^3.29→A; set-up: method as in PMID 31801061; conditions: L128^3.29→A in α2CAR vs wild type; cited from earlier work
[5] = biological target: T3, wild-type α1BAR (Homo sapiens, UniProt P35368); test: HTRF ligand-binding assay on whole transfected HEK293T/17 cells (QAPB saturation; competition with QAPB tracer)
T3 sequence (P35368 35-520 limits assumed): T2 sequence (P35368 35-520 W121Y/A122L/V197L/L314Y) with Y87W, L88A, L163V, Y280L

[6] = biological target: T4, α1BAR-α2C(L^45.52) chimera (V197^45.52→L) (Homo sapiens, UniProt P35368, V197L); test: as above
T4 sequence (P35368 35-520 V197L): T2 sequence (P35368 35-520 W121Y/A122L/V197L/L314Y) with Y87W, L88A, Y280L

[7] = system: α2ARs over α1ARs; conditions: reported; cited from earlier work
[8] = biological target: α1BAR-α2C(YLLY;N^2.64) chimera (Homo sapiens, UniProt P35368, A122L/L105N/L314Y/V197L/W121Y); test: HTRF ligand-binding assay on whole transfected HEK293T/17 cells (QAPB saturation; competition with QAPB tracer)
Chain of α1BAR-α2C(YLLY;N^2.64) chimera (P35368 35-520 L105N/W121Y/A122L/V197L/L314Y): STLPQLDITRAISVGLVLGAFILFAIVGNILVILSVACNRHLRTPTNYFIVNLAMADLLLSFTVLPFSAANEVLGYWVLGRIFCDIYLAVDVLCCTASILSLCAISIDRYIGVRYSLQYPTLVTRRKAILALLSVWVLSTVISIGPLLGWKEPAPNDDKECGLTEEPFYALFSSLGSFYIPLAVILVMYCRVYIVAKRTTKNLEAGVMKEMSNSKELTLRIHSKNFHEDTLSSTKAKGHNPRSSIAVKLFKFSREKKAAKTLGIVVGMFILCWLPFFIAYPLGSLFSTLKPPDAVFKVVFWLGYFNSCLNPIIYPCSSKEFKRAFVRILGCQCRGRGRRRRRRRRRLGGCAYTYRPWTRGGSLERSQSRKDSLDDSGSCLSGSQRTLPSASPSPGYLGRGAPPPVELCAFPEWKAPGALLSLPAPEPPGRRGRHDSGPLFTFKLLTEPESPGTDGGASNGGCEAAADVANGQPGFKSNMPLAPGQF

CCS(=O)(=O)N1CCC[C@@H]2CN3CCc4cc(OC)ccc4[C@@H]3C[C@@H]21 [RS79948]
Ki ([1]; Calculated pKi values, construct α2CAR, competition with RS79948 against QAPB tracer, one value per experiment date): 0.124 nM and 0.311 nM and 0.324 nM and 0.183 nM and 0.189 nM | Ki ([1]; pKi (competition binding), competition with 50 nM QAPB tracer, whole cells, mean): 0.214 nM | Ki [2]: 9.55 nM | Ki ([3]; competition with 50 nM QAPB tracer, whole cells, mean, read-out: pKi (competition binding) (converted)): 1.66 nM | Ki ([3]; construct α1BAR-α2C(YLLY), competition with RS79948 against QAPB tracer, one value per experiment date, read-out: Calculated pKi values (converted)): 0.869 nM and 1.72 nM and 1.67 nM and 3.15 nM | affinity improved compared to wild-type α1BAR ([3]; α1BAR-α2C(YLLY) vs wild-type α1BAR): almost three orders of magnitude | decrease of the ability to antagonize agonist-induced signaling [4]: 50 fold | Ki ([5]; Calculated pKi values, construct α1BAR, competition with RS79948 against QAPB tracer, one value per experiment date): 1270 nM and 1110 nM and 1070 nM and 1900 nM and 1250 nM and 1510 nM and 981 nM | Ki ([5]; pKi (competition binding), competition with 2 nM QAPB tracer, whole cells, mean): 1260 nM | higher affinity compared to wild-type α1BAR ([6]; V197^45.52→L vs wild-type α1BAR): 2 fold | Ki ([6]; competition with 2 nM QAPB tracer, whole cells, mean, read-out: pKi (competition binding) (converted)): 589 nM | Ki ([6]; construct α1BAR-α2C(L45.52), competition with RS79948 against QAPB tracer, one value per experiment date, read-out: Calculated pKi values (converted)): 594 nM and 645 nM and 549 nM | selectivity for α2ARs over α1ARs [7]: ~ 10,000 fold | Ki [8]: 1.38 nM
